Converted amounts (≈) assume the structure as drawn. The source made the active and inactive calls. No cut-off for these calls is given here.
Assays:
Plasmodium berghei [1] = experiment: Antimalarial activity against Plasmodium berghei infected in mouse assessed as disease cure from parasite infection at 5 mg/kg, sc administered 72 hrs after infection; format: functional, organism-based; set-up: dose 5 mg/kg
Plasmodium berghei [2] = experiment: Antimalarial activity against Plasmodium berghei infected in mouse assessed as increase in mean survival days of host at 5 mg/kg, sc administered 72 hrs after infection relative to control; format: functional; settings: route subcutaneous
Staphylococcus aureus [3] = experiment: Antibacterial activity against Staphylococcus aureus UC-96 by gradient plate test; format: functional
Plasmodium berghei [4] = experiment: Antimalarial activity against Plasmodium berghei infected in mouse assessed as disease cure from parasite infection at 20 mg/kg, sc administered 72 hrs after infection; format: functional, organism-based; set-up: dose 20 mg/kg
Plasmodium berghei [5] = experiment: Antimalarial activity against Plasmodium berghei infected in mouse assessed as disease cure from parasite infection at 10 mg/kg, sc administered 72 hrs after infection; format: functional, organism-based; set-up: dose 10 mg/kg
Plasmodium berghei [6] = experiment: Antimalarial activity against Plasmodium berghei infected in mouse assessed as disease cure from parasite infection at 40 mg/kg, sc administered 72 hrs after infection; format: functional, organism-based; set-up: dose 40 mg/kg
Shigella sonnei = experiment: Antibacterial activity against Shigella sonnei C-10 by gradient plate test; format: functional
Staphylococcus aureus [7] = experiment: Antibacterial activity against drug-resistant Staphylococcus aureus S18713 by gradient plate test; format: functional
Plasmodium berghei [8] = experiment: Antimalarial activity against Plasmodium berghei infected in mouse assessed as increase in mean survival days of host at 20 mg/kg, sc administered 72 hrs after infection relative to control; format: functional; settings: route subcutaneous
Plasmodium berghei [9] = experiment: Antimalarial activity against Plasmodium berghei infected in mouse assessed as increase in mean survival days of host at 2.5 mg/kg, sc administered 72 hrs after infection relative to control; format: functional; settings: route subcutaneous
Plasmodium berghei [10] = experiment: Antimalarial activity against Plasmodium berghei infected in mouse assessed as disease cure from parasite infection at 160 mg/kg, sc administered 72 hrs after infection; format: functional, organism-based; set-up: dose 160 mg/kg
[11] = tested on: Mycobacterium tuberculosis; experiment: Antibacterial activity against Mycobacterium tuberculosis H37Ra by gradient plate test; format: functional
Plasmodium berghei [12] = experiment: Antimalarial activity against Plasmodium berghei infected in mouse assessed as disease cure from parasite infection at 80 mg/kg, sc administered 72 hrs after infection; format: functional, organism-based; set-up: dose 80 mg/kg
Escherichia coli = experiment: Antibacterial activity against Escherichia coli Vogel by gradient plate test; format: functional
Pseudomonas aeruginosa = experiment: Antibacterial activity against Pseudomonas aeruginosa 28 by gradient plate test; format: functional
Plasmodium berghei [13] = experiment: Antimalarial activity against Plasmodium berghei infected in mouse assessed as disease cure from parasite infection at 640 mg/kg, sc administered 72 hrs after infection; format: functional, organism-based; set-up: dose 640 mg/kg
Plasmodium berghei [14] = experiment: Antimalarial activity against Plasmodium berghei infected in mouse assessed as increase in mean survival days of host at 1.25 mg/kg, sc administered 72 hrs after infection relative to control; format: functional; settings: route subcutaneous
Enterococcus faecalis = experiment: Antibacterial activity against Streptococcus faecalis MGH-2 by gradient plate test; format: functional
Plasmodium berghei [15] = experiment: Antimalarial activity against Plasmodium berghei infected in mouse assessed as disease cure from parasite infection at 320 mg/kg, sc administered 72 hrs after infection; format: functional, organism-based; set-up: dose 320 mg/kg
Plasmodium berghei [16] = experiment: Antimalarial activity against Plasmodium berghei infected in mouse assessed as increase in mean survival days of host at 10 mg/kg, sc administered 72 hrs after infection relative to control; format: functional; settings: route subcutaneous

Which results are given for `Nc1nc(N)c2c(Cl)c(Sc3ccc4ccccc4c3)ccc2n1`?
Activity (Plasmodium berghei [1]): Active; MST (Plasmodium berghei [2]): 12.7 days; MIC (Staphylococcus aureus [3]): 1.5 µg/mL (≈ 4.25 µM); Activity (Plasmodium berghei [4]): Active; Activity (Plasmodium berghei [5]): Active; Activity (Plasmodium berghei [6]): Active; MIC (Shigella sonnei): > 25 µg/mL; MIC (Staphylococcus aureus [7]): 5 µg/mL (≈ 14.2 µM); MST (Plasmodium berghei [8]): 15.9 days; MST (Plasmodium berghei [9]): 7.9 days; Activity (Plasmodium berghei [10]): Active; MIC [11]: 10 µg/mL (≈ 28.3 µM); Activity (Plasmodium berghei [12]): Active; MIC (Escherichia coli): 10 µg/mL (≈ 28.3 µM); MIC (Pseudomonas aeruginosa): > 25 µg/mL; Activity (Plasmodium berghei [13]): Active; MST (Plasmodium berghei [14]): 5.5 days; MIC (Enterococcus faecalis): < 0.25 µg/mL; Activity (Plasmodium berghei [15]): Active; MST (Plasmodium berghei [16]): 15.9 days
